From PMC4942781, “A sodium channel inhibitor ISTX-I with a novel structure provides a new hint at the evolutionary link between two toxin folds” (Scientific Reports, 2016)
Bridge positions count the residues as written; N and C are the ends. Ends that are not written are not given here.

Assays:
Type in all cases: cell-based, human
hNav1.6 = assay: Whole-cell patch clamp, hNav1.6 in HEK293T cells; details: 10 μM ISTX-I; 50 ms step to -10 mV from -80 mV
Experimental: (§1) HEK293T (human embryonic kidney) cells were grown in DMEM containing 10% heat-inactivated FBS at 37 °C in a 5% CO2 incubator. The cDNA genes encoding human (h)Nav1.1, (h)Nav1.2, (h)Nav1.3, (h)Nav1.4, (h)Nav1.5, (h)Nav1.6 and (h)Nav1.7 were transiently transfected into HEK293T cells for electrophysiology using Lipofectamine-2000 (Invitrogen) in serum-reduced medium (Opti-MEM, Invitrogen) following the manufacturer’s instructions. The auxiliary subunits hβ1 and enhanced green florescent protein plasmids were cotransfected into HEK293T cells to increase the current density and efficiently select cells with green florescent protein for whole-cell patch-clamp recordings. After 12 h, the HEK293T cells were used for electrophysiological analysis.
(§2) DRG neurons with a large diameter (>[…]) and those with a relatively small diameter (<[…]) were chosen by measuring TTX-s and TTX-r currents, respectively. […] Potassium, calcium, and sodium currents were recorded in experimental cells using whole-cell patch-clamp recordings at room temperature, which were performed with an HEK EPC10 patch-clamp amplifier. […] Experimental data were acquired and analyzed using the programs patch master and Sigmaplot 9.0 (Sigma, USA). […]
(§3) Currents were recorded from experimental cells using whole-cell patch clamptechnique at room temperature (22–25 °C). […]

hNav1.4 = assay: Whole-cell patch clamp, hNav1.4 in HEK293T cells; details: 10 μM ISTX-I; 50 ms step to -10 mV from -80 mV
Experimental: as §1, §2, §3

hNav1.2 = assay: Whole-cell patch clamp, hNav1.2 in HEK293T cells; details: 10 μM ISTX-I; 50 ms step to -10 mV from -80 mV
Experimental: as §1, §2, §3

hNav1.8 = assay: Whole-cell patch clamp, hNav1.8 in HEK293 cells; details: legend of Figure S3; concentration not given; 50 ms step to -10 mV, held at -80 mV
Experimental: Electrophysiological studies.
Currents were recorded from experimental cells using whole-cell patch clamptechnique at room temperature (22–25 °C). The patch pipettes were fabricated from borosilicate glass tubing using a two-stage vertical microelectrode puller (PC-10, Narishige, Japan). After establishing the whole-cell recording configuration, the resting potential was held at −80 mV for at least 5 min to allow adequate equilibration between the micropipette solution and the cell interior. The micropipette solution of sodium currents for dorsal root ganglion neurons contained (in mM): 105 CsF, 35 NaCl, 10 HEPES, 10 EGTA (pH 7.4). The external solution contained (in mM): 50 NaCl, 100 TEA.Cl, 2 KCl, 1.5 CaCl2, 10 HEPES, 1 MgCl2, and 5 glucose (pH 7.4). K+ currents were recorded using an internal solution containing the followings (in mM): KCl 140, MgCl2 2.5, HEPES 10, and EGTA 11 (pH 7.2). The external bathing solution contained the followings (in mM): NaCl 150, KCl 5, CaCl2 25, MgCl2 12, HEPES 10, and D-glucose 10 (pH 7.2). Calcium channel currents were measured using Ba2+ as the charge carrier. The external solution contained (in mM): 160 TEA-Cl, 10 HEPES, 2 BaCl2, 10 glucoses, adjusted to pH 7.4 with TEA-OH. […]
Figure S1. […] The absorbance of the elution was monitored at 280 nm. […]

## LCSENGDCAADECCVDTVFEGDMVTRSCEKTTGNFTECPGLTPIA (disulfide 2-14, 8-28, 13-38) [ISTX-I]
hNav1.6
  inhibition of Nav1.6 currents: 10%
hNav1.4
  effect on hNav1.4: no effect
hNav1.2
  effect on hNav1.2: no effect
hNav1.8
  effect on hNav1.8: No effect
